Laboratory results as given in US4150137A, “Pyridylalkyl esters of 2-(p-isobutylphenyl)acetic acid and propionic acids and use” (Hisamitsu Pharmaceutical Co. Inc., priority 1975, dated 1979).

Experiments:
[1] = system: male mice of dd-strain; type: in vivo; conditions: death of animals 72 hours following administration
Description: Each test compound suspended in 0.5% tragacanth-saline was administered intraperitoneally or orally to male mice of dd-strain(body weight 16-24 g). The lethal dose was estimated from the death of animals 72 hours following administration.

[2] = system: carrageenin edema; experiment: Anti-inflammatory activity for oral route (carrageenin edema, hind paw); type: in vivo, rat (Wistar-strain); conditions: for anti-inflammatory effect, oral, 10 mg/kg (relative inhibition, ibuprofen = 1.0): 10 mg/kg oral; for anti-inflammatory effect, oral, 10 mg/kg (relative inhibition, ibuprofen = 1.0) / anti-inflammatory effect, oral, 50 mg/kg (relative inhibition, ibuprofen = 1.0): percent inhibition divided by that of ibuprofen, carrageenin edema after 3 hours; for anti-inflammatory effect, oral, 50 mg/kg (relative inhibition, ibuprofen = 1.0): 50 mg/kg oral; for mean percent inhibition (carrageenin edema): oral
Description: After 30 minutes 0.5-1.0% carrageenin suspended in the water for injection was injected subcutaneously to a hind paw. After 3 hours the carrageenin edema was measured by volume, and the percent inhibition was determined with respect to the results for the control animals.

[3] = system: carrageenin-induced leakage of the pigment, dorsal skin; experiment: Anti-inflammatory activity for topical route (carrageenin, leakage of pigment in dorsal skin); type: in vivo, rat (Wistar-strain); conditions: for anti-inflammatory effect, topical (relative inhibition, ibuprofen = 1.0): 1% in polyethylene glycol 300, percent inhibition divided by that of ibuprofen
Description: The dorsal skin of male rats of Wistar-strain(body weight: about 100 g) were depilated. Carrageenin suspension was injected intra-dermally at a dose of 250 γ/0.05 ml/site. […] Immediately after injection, the filter paper containing 125.2±18.0 mg of the polyethylene glycol was applied on the injected site. After 3 hours, 1% pontamine sky blue solution was injected intravenously at a dose of 0.5 ml/kg. After further 3 hours, the animals were sacrificed and their dorsal skin were removed to measure the area of leakage of the pigment. The percent inhibition was determined with respect to the results for the control animals.

[4] = system: writhing syndrome; experiment: Analgetic activity (acetic acid writhing syndrome); type: in vivo, mouse (dd-strain); conditions: Mus musculus, 1 h; oral, mice, 0.6% acetic acid i.p. one hour later; Litchfield-Wilcoxon; read-out: analgetic effect ED50 (95% C.L.)
Description: Each test compound suspended in 0.5% tragacanth-saline was orally administered to dd-strain mice(body weight: 18-20 g). After one hour 0.6% acetic acid solution was injected intraperitoneally in a volume of 0.1 ml/10 g.

## CC(C)Cc1ccc(C(C)C(=O)OCCO)cc1 (stereo not shown) [Compound 10]
[1]
  acute toxicity, oral (lethal dose): > 2000 mg/kg
[2]
  anti-inflammatory effect, oral, 10 mg/kg (relative inhibition, ibuprofen = 1.0): 0.5
  anti-inflammatory effect, oral, 50 mg/kg (relative inhibition, ibuprofen = 1.0): 1.0
[3]
  anti-inflammatory effect, topical (relative inhibition, ibuprofen = 1.0): 1.9
[4]
  ED50: 155 mg/kg

## CC(C)Cc1ccc(C(C)C(=O)OCC(F)(F)F)cc1 (stereo not shown) [Compound 9, 2-(p-isobutylphenyl)propionic acid-2,2,2-trifluoroethyl ester]
[1]
  acute toxicity, oral (lethal dose): 1000 to 2000 mg/kg
[2]
  anti-inflammatory effect, oral, 10 mg/kg (relative inhibition, ibuprofen = 1.0): 0.8
  anti-inflammatory effect, oral, 50 mg/kg (relative inhibition, ibuprofen = 1.0): 1.3
[3]
  anti-inflammatory effect, topical (relative inhibition, ibuprofen = 1.0): 3.6
[4]
  ED50: 135 mg/kg

## CC(C)Cc1ccc(C(C)C(=O)OCCCN(C)C)cc1 (stereo not shown)
[1]
  acute toxicity, oral (lethal dose): 500 to 1000 mg/kg
[2]
  anti-inflammatory effect, oral, 10 mg/kg (relative inhibition, ibuprofen = 1.0): 0.7
  anti-inflammatory effect, oral, 50 mg/kg (relative inhibition, ibuprofen = 1.0): 1.1
[3]
  anti-inflammatory effect, topical (relative inhibition, ibuprofen = 1.0): 2.2
[4]
  ED50: 29.9 mg/kg

## CC(C)Cc1ccc(C(C)C(=O)OCc2ccncc2)cc1 (stereo not shown)
[1]
  acute toxicity, oral (lethal dose): > 2000 mg/kg
[2]
  anti-inflammatory effect, oral, 10 mg/kg (relative inhibition, ibuprofen = 1.0): 1.0
  anti-inflammatory effect, oral, 50 mg/kg (relative inhibition, ibuprofen = 1.0): 1.2
[3]
  anti-inflammatory effect, topical (relative inhibition, ibuprofen = 1.0): 2.7
[4]
  ED50: 87.1 mg/kg

## COCOC(=O)C(C)c1ccc(CC(C)C)cc1 (stereo not shown) [Compound 12]
[1]
  acute toxicity, oral (lethal dose): 500 to 1000 mg/kg
[2]
  anti-inflammatory effect, oral, 10 mg/kg (relative inhibition, ibuprofen = 1.0): 1.0
  anti-inflammatory effect, oral, 50 mg/kg (relative inhibition, ibuprofen = 1.0): 1.2
[3]
  anti-inflammatory effect, topical (relative inhibition, ibuprofen = 1.0): 2.5
[4]
  ED50: 174 mg/kg

## CC(C)Cc1ccc(C(C)C(=O)OCc2ccccc2)cc1 (stereo not shown)
[1]
  acute toxicity, oral (lethal dose): > 2000 mg/kg
[2]
  anti-inflammatory effect, oral, 10 mg/kg (relative inhibition, ibuprofen = 1.0): 0.7
  anti-inflammatory effect, oral, 50 mg/kg (relative inhibition, ibuprofen = 1.0): 0.9
[3]
  anti-inflammatory effect, topical (relative inhibition, ibuprofen = 1.0): 3.1
[4]
  ED50: 118 mg/kg

## CC(C)Cc1ccc(C(C)C(=O)OCc2cccnc2)cc1 (stereo not shown)
[1]
  acute toxicity, oral (lethal dose): 1000 to 2000 mg/kg
[2]
  anti-inflammatory effect, oral, 10 mg/kg (relative inhibition, ibuprofen = 1.0): 1.0
  anti-inflammatory effect, oral, 50 mg/kg (relative inhibition, ibuprofen = 1.0): 1.4
[3]
  anti-inflammatory effect, topical (relative inhibition, ibuprofen = 1.0): 1.7
[4]
  ED50: 31.2 mg/kg

## CC(C)Cc1ccc(C(C)C(=O)O)cc1 (stereo not shown) [ibuprofen, 2-(p-isobutylphenyl)propionic acid, reference compound]
[2]; 10 mg/kg
  mean percent inhibition (carrageenin edema): 33.5%
[2]; 50 mg/kg
  mean percent inhibition (carrageenin edema): 37.4%
[3]; 1% in polyethylene glycol 300
  mean percent inhibition (topical route): 23.8%
[4]
  ED50: 45.8 mg/kg

## CC(C)Cc1ccc(C(C)C(=O)OCc2cccc(F)c2)cc1 (stereo not shown)
[2]
  anti-inflammatory effect, oral, 10 mg/kg (relative inhibition, ibuprofen = 1.0): 0.8
  anti-inflammatory effect, oral, 50 mg/kg (relative inhibition, ibuprofen = 1.0): 1.7
[3]
  anti-inflammatory effect, topical (relative inhibition, ibuprofen = 1.0): 0.9
[4]
  ED50: 634 mg/kg

## COc1ccc(COC(=O)C(C)c2ccc(CC(C)C)cc2)cc1 (stereo not shown)
[2]
  anti-inflammatory effect, oral, 10 mg/kg (relative inhibition, ibuprofen = 1.0): 0.8
  anti-inflammatory effect, oral, 50 mg/kg (relative inhibition, ibuprofen = 1.0): 1.4
[3]
  anti-inflammatory effect, topical (relative inhibition, ibuprofen = 1.0): 2.3
[4]
  ED50: 220 mg/kg

## CC(C)Cc1ccc(C(C)C(=O)OCc2ccc(F)cc2)cc1 (stereo not shown)
[2]
  anti-inflammatory effect, oral, 10 mg/kg (relative inhibition, ibuprofen = 1.0): 1.1
  anti-inflammatory effect, oral, 50 mg/kg (relative inhibition, ibuprofen = 1.0): 1.2

## Cc1ccc(COC(=O)C(C)c2ccc(CC(C)C)cc2)cc1 (stereo not shown)
[2]
  anti-inflammatory effect, oral, 10 mg/kg (relative inhibition, ibuprofen = 1.0): 1.7
  anti-inflammatory effect, oral, 50 mg/kg (relative inhibition, ibuprofen = 1.0): 1.5
[3]
  anti-inflammatory effect, topical (relative inhibition, ibuprofen = 1.0): 1.9
[4]
  ED50: 230 mg/kg

## CC(C)Cc1ccc(C(C)C(=O)OCCN2CCOCC2)cc1 (stereo not shown)
[1]
  acute toxicity, oral (lethal dose): 1000 to 2000 mg/kg
[2]
  anti-inflammatory effect, oral, 10 mg/kg (relative inhibition, ibuprofen = 1.0): 0.7
  anti-inflammatory effect, oral, 50 mg/kg (relative inhibition, ibuprofen = 1.0): 0.9
[3]
  anti-inflammatory effect, topical (relative inhibition, ibuprofen = 1.0): 1.6
[4]
  ED50: 154 mg/kg

## COCCOC(=O)C(C)c1ccc(CC(C)C)cc1 (stereo not shown) [Compound 14]
[1]
  acute toxicity, oral (lethal dose): 1000 to 2000 mg/kg
[2]
  anti-inflammatory effect, oral, 10 mg/kg (relative inhibition, ibuprofen = 1.0): 0.4
  anti-inflammatory effect, oral, 50 mg/kg (relative inhibition, ibuprofen = 1.0): 1.2
[3]
  anti-inflammatory effect, topical (relative inhibition, ibuprofen = 1.0): 1.2
[4]
  ED50: 406 mg/kg

## CCCOC(=O)C(C)c1ccc(CC(C)C)cc1 (stereo not shown) [Compound 2, 2-(4-isobutylphenyl)propionic acid-n-propyl ester]
[1]
  acute toxicity, oral (lethal dose): > 2000 mg/kg
[2]
  anti-inflammatory effect, oral, 10 mg/kg (relative inhibition, ibuprofen = 1.0): 0.7
  anti-inflammatory effect, oral, 50 mg/kg (relative inhibition, ibuprofen = 1.0): 1.1
[3]
  anti-inflammatory effect, topical (relative inhibition, ibuprofen = 1.0): 3.2
[4]
  ED50: 192 mg/kg

## CC(=O)OCCOC(=O)C(C)c1ccc(CC(C)C)cc1 (stereo not shown) [Compound 18]
[1]
  acute toxicity, oral (lethal dose): > 2000 mg/kg
[2]
  anti-inflammatory effect, oral, 10 mg/kg (relative inhibition, ibuprofen = 1.0): 0.7
  anti-inflammatory effect, oral, 50 mg/kg (relative inhibition, ibuprofen = 1.0): 1.1
[3]
  anti-inflammatory effect, topical (relative inhibition, ibuprofen = 1.0): 2.2
[4]
  ED50: 308 mg/kg

## CC(C)Cc1ccc(C(C)C(=O)OCc2c(Cl)cccc2Cl)cc1 (stereo not shown)
[1]
  acute toxicity, oral (lethal dose): > 2000 mg/kg
[2]
  anti-inflammatory effect, oral, 10 mg/kg (relative inhibition, ibuprofen = 1.0): 0.6
  anti-inflammatory effect, oral, 50 mg/kg (relative inhibition, ibuprofen = 1.0): 1.0
[3]
  anti-inflammatory effect, topical (relative inhibition, ibuprofen = 1.0): 2.1
[4]
  ED50: 79.6 mg/kg

## COC(=O)C(C)c1ccc(CC(C)C)cc1 (stereo not shown) [Compound 1]
[1]
  acute toxicity, oral (lethal dose): > 2000 mg/kg
[2]
  anti-inflammatory effect, oral, 10 mg/kg (relative inhibition, ibuprofen = 1.0): 0.8
  anti-inflammatory effect, oral, 50 mg/kg (relative inhibition, ibuprofen = 1.0): 1.4
[3]
  anti-inflammatory effect, topical (relative inhibition, ibuprofen = 1.0): 3.5
[4]
  ED50: 109 mg/kg

## CCN(CC)CCOC(=O)C(C)c1ccc(CC(C)C)cc1 (stereo not shown)
[1]
  acute toxicity, oral (lethal dose): 500 to 1000 mg/kg
[2]
  anti-inflammatory effect, oral, 10 mg/kg (relative inhibition, ibuprofen = 1.0): 1.2
  anti-inflammatory effect, oral, 50 mg/kg (relative inhibition, ibuprofen = 1.0): 0.9
[3]
  anti-inflammatory effect, topical (relative inhibition, ibuprofen = 1.0): 3.0
[4]
  ED50: 318 mg/kg

## CC(=O)OCOC(=O)C(C)c1ccc(CC(C)C)cc1 (stereo not shown) [Compound 17]
[2]
  anti-inflammatory effect, oral, 10 mg/kg (relative inhibition, ibuprofen = 1.0): 0.9
  anti-inflammatory effect, oral, 50 mg/kg (relative inhibition, ibuprofen = 1.0): 0.9

## CC(C)Cc1ccc(C(C)C(=O)OCc2ccccc2Cl)cc1 (stereo not shown)
[1]
  acute toxicity, oral (lethal dose): > 2000 mg/kg
[2]
  anti-inflammatory effect, oral, 10 mg/kg (relative inhibition, ibuprofen = 1.0): 0.5
  anti-inflammatory effect, oral, 50 mg/kg (relative inhibition, ibuprofen = 1.0): 1.0
[3]
  anti-inflammatory effect, topical (relative inhibition, ibuprofen = 1.0): 2.5
[4]
  ED50: 51.4 mg/kg

## CC(C)Cc1ccc(C(C)C(=O)OCC(O)CO)cc1 (stereo not shown) [Compound 11]
[1]
  acute toxicity, oral (lethal dose): 1000 to 2000 mg/kg
[2]
  anti-inflammatory effect, oral, 10 mg/kg (relative inhibition, ibuprofen = 1.0): 1.1
  anti-inflammatory effect, oral, 50 mg/kg (relative inhibition, ibuprofen = 1.0): 0.9
[4]
  ED50: 143 mg/kg

## CC(C)Cc1ccc(C(C)C(=O)OCc2cccnc2Cl)cc1 (stereo not shown)
[1]
  acute toxicity, oral (lethal dose): > 2000 mg/kg
[2]
  anti-inflammatory effect, oral, 10 mg/kg (relative inhibition, ibuprofen = 1.0): 0.8
  anti-inflammatory effect, oral, 50 mg/kg (relative inhibition, ibuprofen = 1.0): 2.5
[3]
  anti-inflammatory effect, topical (relative inhibition, ibuprofen = 1.0): 1.8
[4]
  ED50: 762 mg/kg

## CCCCCCOC(=O)C(C)c1ccc(CC(C)C)cc1 (stereo not shown) [Compound 6]
[1]
  acute toxicity, oral (lethal dose): > 2000 mg/kg
[2]
  anti-inflammatory effect, oral, 50 mg/kg (relative inhibition, ibuprofen = 1.0): 1.2
[3]
  anti-inflammatory effect, topical (relative inhibition, ibuprofen = 1.0): 3.5
[4]
  ED50: 215 mg/kg

## CC(C)Cc1ccc(C(C)C(=O)OCc2ccccc2F)cc1 (stereo not shown)
[2]
  anti-inflammatory effect, oral, 10 mg/kg (relative inhibition, ibuprofen = 1.0): 1.6
  anti-inflammatory effect, oral, 50 mg/kg (relative inhibition, ibuprofen = 1.0): 1.7
[3]
  anti-inflammatory effect, topical (relative inhibition, ibuprofen = 1.0): 2.9
[4]
  ED50: 202 mg/kg
